# Source: patent US11613531B2, “Inhibitors of RHO associated coiled-coil containing protein kinase” (Kadmon Corporation, LLC, priority 2017, dated 2023)
# pIC50: −log10 of the molar value. Read-outs that look alike come from different tables or passages of the source.
# Tests used:
# [1] = system: ppMlc (T18/S19) levels in A7R5 cells; assay: A7R5 in-cell ELISA (pMLC); format: cell-based, Rat; details: Rattus norvegicus, A7R5, A7R5 cells; for inhibition at 1 µM: 1 μM compound; for inhibition at 1 µM / inhibition at 10 µM: read-out: pMLC % inh A7R5 @ [conc]; for inhibition at 10 µM: 10 μM compound; for IC50: ppMlc (T18/S19)
# How it was run: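 Cellular IC50 came from a nonlinear regression fit of ppMlc (T18/S19) signal, read by colorimetric in-cell ELISA on fixed cells. Rat A7R5 aortic smooth muscle cells had been exposed for 90 min to compounds in 9-point 2-fold serial dilution, 24 h after seeding.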
# [2] = molecular target: Recombinant ROCK2 (amino acids 1-552) (Homo sapiens (Human), UniProt O75116); assay: Z′-Lyte kinase assay, ROCK2; format: biochemical; details: for inhibition at 1 µM: 1 μM compound, read-out: ROCK2 % inh. @ [conc]
# Protocol: Determination of Compound's ROCK Inhibitory Activity In Vitro (Z'Lyte Assay).
# Recombinant ROCK1 (amino acids 1-535) and ROCK2 (amino acids 1-552) proteins were purchased from ThermoFisher Scientific. Compound's activities were measured by Z′-lyte kinase kit (ThermoFisher Scientific) and IC50 was calculated
# In vitro activities for the compounds were measured with Z′-lyte kinase kit (ThermoFisher Scientific). The percent inhibition rate was calculated by normalizing the kinase activity value obtained with 1 μM compound treatment against DMSO control value and then applied to the formula, [1-(compound/DMSO)]×100%. IC50s were calculated using the nonlinear regression curve fit function of the GraphPad Prism software with kinase activities data measured with 9 points 2-fold serial dilution of compounds treatment. In cell pMLC IC50s were calculated with data obtained from A7R5 cell experiments. A7R5 cells were treated with 9 points 2-fold serial dilution of compounds and ppMlc (T18/S19) levels were determined to calculate cellular IC50 values of the compounds using the nonlinear regression curve fit function of the GraphPad Prism software. NIH3T3 cells stably expressing ACTA2-promoter-driven-luciferase were applied to measure ROCK compounds functional IC50s in cells. Cells were plated in 96 well plates to confluence and treated with 9 points serial dilution of compounds in combination with TGFβ1 for 24 hr. Luciferase activities were measured and compound's IC50s were calculated using the nonlinear regression curve fit function of the GraphPad Prism software.
# Chain of Recombinant ROCK2 (amino acids 1-552) (O75116 1-552): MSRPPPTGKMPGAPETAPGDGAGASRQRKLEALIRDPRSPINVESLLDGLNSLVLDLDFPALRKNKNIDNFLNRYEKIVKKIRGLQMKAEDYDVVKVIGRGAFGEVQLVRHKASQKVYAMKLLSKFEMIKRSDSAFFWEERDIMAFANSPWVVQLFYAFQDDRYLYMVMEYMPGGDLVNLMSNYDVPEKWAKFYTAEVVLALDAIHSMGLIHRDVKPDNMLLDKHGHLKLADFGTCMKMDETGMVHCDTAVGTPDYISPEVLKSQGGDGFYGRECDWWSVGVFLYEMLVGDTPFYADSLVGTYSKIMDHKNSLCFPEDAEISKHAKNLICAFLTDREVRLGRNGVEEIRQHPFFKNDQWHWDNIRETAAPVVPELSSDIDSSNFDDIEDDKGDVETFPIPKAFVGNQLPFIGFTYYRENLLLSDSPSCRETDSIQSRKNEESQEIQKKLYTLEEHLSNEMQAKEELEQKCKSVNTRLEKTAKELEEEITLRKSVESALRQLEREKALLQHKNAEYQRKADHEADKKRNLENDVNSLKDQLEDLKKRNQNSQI
inhibition at 1 µM [2],IC50 [1],pIC50 ([2]; 9 points 2-fold serial dilution),Compound,inhibition at 1 µM [1],inhibition at 10 µM [1],pIC50 [2]
73.8%,2200 nM,,"CC1CN(c2ncc(Cl)c(Nc3ccc4[nH]ncc4c3)n2)CCCN1 (stereo not shown) [Example 90, N-(5-chloro-2-(3-methyl-1,4-diazepan-1-yl)pyrimidin-4-yl)-1H-indazol-5-amine]",,54.2%,
47.9%,,,"Cc1cnc(N2CCNC(C)C2)nc1Nc1ccc2[nH]ncc2c1 (stereo not shown) [Example 91, N-(5-methyl-2-(3-methylpiperazin-1-yl)pyrimidin-4-yl)-1H-indazol-5-amine]",,46.7%,
27.2%,,,"CCC1CCN(c2ncc(C)c(Nc3ccc4[nH]ncc4c3)n2)CCN1 (stereo not shown) [Example 96, N-(2-(5-ethyl-1,4-diazepan-1-yl)-5-methylpyrimidin-4-yl)-1H-indazol-5-amine]",,14.3%,
54%,2340 nM,,"Cc1cnc(N2CCNCC2C)nc1Nc1ccc2[nH]ncc2c1 (stereo not shown) [Example 97, N-(5-methyl-2-(2-methylpiperazin-1-yl)pyrimidin-4-yl)-1H-indazol-5-amine]",,52.5%,
0%,,,"Cc1cnc(N2CC(C)NC(C)C2)nc1Nc1ccc2[nH]ncc2c1 (stereo not shown) [Example 98, N-(2-(3,5-dimethylpiperazin-1-yl)-5-methylpyrimidin-4-yl)-1H-indazol-5-amine]",,17.4%,
47.5%,,,"Cc1cnc(N2CCNC(C)CC2)nc1Nc1ccc2[nH]ncc2c1 (stereo not shown) [Example 100, N-(5-methyl-2-(5-methyl-1,4-diazepan-1-yl)pyrimidin-4-yl)-1H-indazol-5-amine]",,46.4%,
48.5%,,5.96,"Cc1cnc(N2CCCNC(C)C2)nc1Nc1ccc2[nH]ncc2c1 (stereo not shown) [Example 102, N-(5-methyl-2-(3-methyl-1,4-diazepan-1-yl)pyrimidin-4-yl)-1H-indazol-5-amine]",,43.5%,
82.9%,997 nM,,"Cc1cnc(N2CCCNCC2C)nc1Nc1ccc2[nH]ncc2c1 (stereo not shown) [Example 104, N-(5-methyl-2-(2-methyl-1,4-diazepan-1-yl)pyrimidin-4-yl)-1H-indazol-5-amine]",31.6%,,
53.9%,,,"CCC1CNCCCN1c1ncc(C)c(Nc2ccc3[nH]ncc3c2)n1 (stereo not shown) [Example 105, N-(2-(2-ethyl-1,4-diazepan-1-yl)-5-methylpyrimidin-4-yl)-1H-indazol-5-amine]",15.1%,,
34.1%,,,"CCC1CN(c2ncc(C)c(Nc3ccc4[nH]ncc4c3)n2)CCCN1 (stereo not shown) [Example 106, N-(2-(3-ethyl-1,4-diazepan-1-yl)-5-methylpyrimidin-4-yl)-1H-indazol-5-amine]",12.8%,,
58.1%,2880 nM,,"Cc1cc(Nc2ccc3[nH]ncc3c2)nc(N2CC(C)NC(C)C2)n1 (stereo not shown) [Example 113, N-(2-(3,5-dimethylpiperazin-1-yl)-6-methylpyrimidin-4-yl)-1H-indazol-5-amine]",,47.5%,

# The next lines start with the molecule.
Compound,inhibition at 1 µM [2],IC50 [1],pIC50 ([2]; 9 points 2-fold serial dilution),inhibition at 1 µM [1],inhibition at 10 µM [1],pIC50 [2]
"c1cc(Nc2ccc3[nH]ncc3c2)nc(N2CC3CNC(C3)C2)n1 (stereo not shown) [Example 78, N-(2-(3,6-diazabicyclo[3.2.1]octan-3-yl)pyrimidin-4-yl)-1H-indazol-5-amine]",99.1%,,,20.3%,,
"c1cc(Nc2ccc3[nH]ncc3c2)nc(N2CCN3CCNCC3C2)n1 (stereo not shown) [Example 84, N-(2-(octahydro-2H-pyrazino[1,2-a]pyrazin-2-yl)pyrimidin-4-yl)-1H-indazol-5-amine]",22.2%,,,0.7%,,
"c1cc(Nc2ccc3[nH]ncc3c2)nc(N2CCC3CNCC3CC2)n1 (stereo not shown) [Example 85, N-(2-(octahydropyrrolo[3,4-d]azepin-6(1H)-yl)pyrimidin-4-yl)-1H-indazol-5-amine]",98%,,,17.3%,,
"c1ccc2c(c1)N(c1nccc(Nc3ccc4[nH]ncc4c3)n1)CC21CCNCC1 [Example 87, N-(2-(spiro[indoline-3,4′-piperidin]-1-yl)pyrimidin-4-yl)-1H-indazol-5-amine]",7.6%,,,5.8%,,
"c1ccc2c(c1)C(C1CCNCC1)CN2c1nccc(Nc2ccc3[nH]ncc3c2)n1 (stereo not shown) [Example 88, N-(2-(3-(piperidin-4-yl)indolin-1-yl)pyrimidin-4-yl)-1H-indazol-5-amine]",13.8%,,,5.6%,,
"c1ccc2c(c1)C(C1CCCNC1)CN2c1nccc(Nc2ccc3[nH]ncc3c2)n1 (stereo not shown) [Example 89, N-(2-(3-(piperidin-3-yl)indolin-1-yl)pyrimidin-4-yl)-1H-indazol-5-amine]",12.7%,,,20.1%,,
"Cc1cnc(N2CCNCC2)nc1Nc1ccc2[nH]ncc2c1 [Example 95, N-(5-methyl-2-(piperazin-1-yl)pyrimidin-4-yl)-1H-indazol-5-amine]",61%,,,,46.7%,
"Cc1cnc(N2C3CCC2CNC3)nc1Nc1ccc2[nH]ncc2c1 [Example 107, N-(2-(3,8-diazabicyclo[3.2.1]octan-8-yl)-5-methylpyrimidin-4-yl)-1H-indazol-5-amine]",98.3%,,,26%,,
"CCC1CCN(c2nc(C)cc(Nc3ccc4[nH]ncc4c3)n2)CCN1 (stereo not shown) [Example 109, N-(2-(5-ethyl-1,4-diazepan-1-yl)-6-methylpyrimidin-4-yl)-1H-indazol-5-amine]",68.4%,1880 nM,,,52.3%,
"Cc1cc(Nc2ccc3[nH]ncc3c2)nc(N2CCCNC(C(C)C)C2)n1 (stereo not shown) [Example 110, N-(2-(3-isopropyl-1,4-diazepan-1-yl)-6-methylpyrimidin-4-yl)-1H-indazol-5-amine]",67.5%,1390 nM,,,50.9%,
"Cc1cc(Nc2ccc3[nH]ncc3c2)nc(N2CCNC(C(C)C)CC2)n1 (stereo not shown) [Example 111, N-(2-(5-isopropyl-1,4-diazepan-1-yl)-6-methylpyrimidin-4-yl)-1H-indazol-5-amine]",31.8%,,,,44%,
"CCC1CN(c2nc(C)cc(Nc3ccc4[nH]ncc4c3)n2)CCN1 (stereo not shown) [Example 114, N-(2-(3-ethylpiperazin-1-yl)-6-methylpyrimidin-4-yl)-1H-indazol-5-amine]",82%,,,,48.7%,
"Cc1cc(Nc2ccc3[nH]ncc3c2)nc(N2CCNC(C(C)C)C2)n1 (stereo not shown) [Example 115, N-(2-(3-isopropylpiperazin-1-yl)-6-methylpyrimidin-4-yl)-1H-indazol-5-amine]",64.2%,,,,48.2%,
"Cc1cc(Nc2ccc3[nH]ncc3c2)nc(N2CCNC(C)CC2)n1 (stereo not shown) [Example 116, N-(6-methyl-2-(5-methyl-1,4-diazepan-1-yl)pyrimidin-4-yl)-1H-indazol-5-amine]",81.9%,1020 nM,,,51.6%,
"Cc1cc(Nc2ccc3[nH]ncc3c2)nc(N2CC3CCC(C2)N3)n1 [Example 119, N-(2-(3,8-diazabicyclo[3.2.1]octan-3-yl)-6-methylpyrimidin-4-yl)-1H-indazol-5-amine]",90.1%,,,17.7%,,
"Cc1cc(Nc2ccc3[nH]ncc3c2)nc(N2CC3CC(C2)N3)n1 [Example 120, N-(2-(3,6-diazabicyclo[3.1.1]heptan-3-yl)-6-methylpyrimidin-4-yl)-1H-indazol-5-amine]",93.1%,,,23.4%,,
"Cc1cc(Nc2ccc3[nH]ncc3c2)nc(N2CC3CNCC(C3)C2)n1 [Example 130, N-(2-(3,7-diazabicyclo[3.3.1]nonan-3-yl)-6-methylpyrimidin-4-yl)-1H-indazol-5-amine]",93.4%,,,27.7%,,
"Cc1cc(Nc2ccc3[nH]ncc3c2)nc(N2CCC3NCCC3C2)n1 (stereo not shown) [Example 131, N-(6-methyl-2-(octahydro-5H-pyrrolo[3,2-c]pyridin-5-yl)pyrimidin-4-yl)-1H-indazol-5-amine]",74.1%,,,12.7%,,
"Cc1cc(Nc2ccc3[nH]ncc3c2)nc(N2CCC3CNCC3CC2)n1 (stereo not shown) [Example 132, N-(6-methyl-2-(octahydropyrrolo[3,4-d]azepin-6(1H)-yl)pyrimidin-4-yl)-1H-indazol-5-amine]",81.8%,,,19.6%,,6.61
"Cc1cc(Nc2ccc3[nH]ncc3c2)nc(N2CCN3CCNCC3C2)n1 (stereo not shown) [Example 133, N-(6-methyl-2-(octahydro-2H-pyrazino[1,2-a]pyrazin-2-yl)pyrimidin-4-yl)-1H-indazol-5-amine]",15.2%,,,3.1%,,
"Cc1cc(Nc2ccc3[nH]ncc3c2)nc(N2CC3CNC3C2)n1 (stereo not shown) [Example 134, N-(2-(3,6-diazabicyclo[3.2.0]heptan-3-yl)-6-methylpyrimidin-4-yl)-1H-indazol-5-amine]",,,,29.9%,,7.96
